Each structure is given as a SMILES string.

Usually Cmax stands for the highest concentration seen after dosing. The term half-life denotes the time needed for the level to fall by half in the phase considered.

One data set deals with T1, CES3 (Homo sapiens, UniProt Q6UWW8).
T1 sequence (Q6UWW8 27-571): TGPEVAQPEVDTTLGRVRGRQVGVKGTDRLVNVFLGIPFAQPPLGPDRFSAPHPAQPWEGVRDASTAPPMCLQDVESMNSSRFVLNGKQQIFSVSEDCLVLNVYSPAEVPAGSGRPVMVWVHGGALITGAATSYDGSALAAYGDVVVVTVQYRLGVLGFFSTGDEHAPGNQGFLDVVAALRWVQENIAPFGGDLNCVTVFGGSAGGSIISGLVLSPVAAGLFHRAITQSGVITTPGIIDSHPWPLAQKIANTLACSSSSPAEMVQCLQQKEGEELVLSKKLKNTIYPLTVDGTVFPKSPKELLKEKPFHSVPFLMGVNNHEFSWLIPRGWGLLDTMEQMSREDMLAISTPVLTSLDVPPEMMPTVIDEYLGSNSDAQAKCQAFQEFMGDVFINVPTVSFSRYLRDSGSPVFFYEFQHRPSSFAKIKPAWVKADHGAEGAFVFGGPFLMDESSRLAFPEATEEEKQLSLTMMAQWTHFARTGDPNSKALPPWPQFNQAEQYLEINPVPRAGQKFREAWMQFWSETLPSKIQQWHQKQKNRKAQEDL
Put plainly: Conversion of CAP7.1 to etoposide by CES3 (HPLC). The class given is in vitro ADME. The following applies: 5 μM CAP7.1, sodium phosphate pH 7.4, 37° C. As for the experimental part: 5 μM CAP7.1 was pre-incubated for 3 min in 999 μl 0.1 mol/l) sodium phosphate (NaH2PO4, Roth, Karlsruhe, Germany) pH 7.4 at 37° C. After that, CES1, CES2 and CES3, respectively, were added. Controls were incubated with 10% foetal calf serum (FCS, positive control) or in buffer (negative control). At different time points, aliquots were subjected to HPLC in order to analyse the formed products.

Another data set relates to topoisomerase II α. Put plainly: Topoisomerase II alpha mRNA expression in U937 cells (PCR). The class given is cell-based. The following applies: 24 h. As for the experimental part: (§1) One of the controls involved the treatment of the cells with 0.05% (1 μl) DMSO. Untreated cells are also shown as a control.
(§2) After an incubation time of 24 h, expression was analysed by determining mRNA levels by real-time PCR. In the respective lanes of FIG. 2, the bands for topoisomerase II α (322 bp), topoisomerase II β (304 bp) and the GAPDH control (358 bp) are shown. In the H2O control lane, showing the results of the H2O control sample, no bands were observed.

In a further data set the test system is topoisomerase II β. Put plainly: Topoisomerase II beta mRNA expression in U937 cells (PCR). Type of data set: cell-based. Conditions: 10^4 mol/l, 24 h. As to the method: as §1, §2
Data set [1] has as its target T2, MDR-1 gene product (P-glycoprotein) (Homo sapiens, UniProt P08183).
T2 construct: endogenous in cells; host or cells: Kelly
Put plainly: Functional MDR-1 assay with JC-1 in Kelly cells (flow cytometry). Type of data set: cell-based. The following applies: Kelly cells, 10^−4 mol/l, 15 min. As for the experimental part:
By means of an assay using JC-1, MDR-1 activity was assessed in Kelly cells, which express MDR-1. JC-1 is a cationic staining dye which is taken up by living cells. JC-1 is recognized by the MDR-1 gene product (P-glycoprotein) and pumped to the outside of the cell (substrate efflux). Thus, MDR-1 activity is indicated by a reduction in intracellular JC-1 signal.
Kelly cells grown in RPMI medium were washed and resuspended at a concentration of 10^6 cells/ml in solutions containing JC-1 in a final concentration of 50 nmol/l. […] The control contained 1 μl (0.05%) DMSO. Cells were analysed for JC-1 staining in a FACScanto II flow cytometer.
In general terms: A flow cytometer gives signals particle by particle.

A short description of data set [2]: Cardiovascular telemetry study. Conditions: conscious monkeys, single intravenous 30-minute infusion. Type of data set: in vivo, cynomolgus monkeys. An excerpt:
The objective of this study was to evaluate the potential modifications of cardiovascular function and cardiac electrophysiology by CAP7.1. The intravenous route was selected, as it is the intended mode of administration in human therapeutic use.
A total of four cynomolgus monkeys (two males and two females) were implanted with telemetric devices and allocated to a single group. They received a single dose of the vehicle (Cremophor/ethanol/NaCl) or CAP7.1, by intravenous 30-minute infusion. Cardiovascular parameters were monitored up to 24 hours following single infusion. The cardiovascular parameters evaluated in this study included heart rate, diastolic, systolic and mean arterial pressure, and duration of the PQ, QRS and QT intervals.

The test system of the next data set is NSX2 tumour xenografts. In words: NSX2 tumour xenograft model. Type of data set: in vivo. The following applies: mice bearing NSX2 tumour xenografts (MDR-mediated etoposide-resistant). An excerpt:
The lack of cross-resistance to CAP7.1 of MDR-mediated etoposide-resistant cell lines in vitro was confirmed in vivo in mice bearing NSX2 tumour xenografts.

A short description of data set [3]: Combination therapy with carboplatin in children with advanced neuroblastoma. Type of data set: in vivo, human. The following applies: human; plasma, one of the children treated. As to the method: (§3) CAP7.1 was administered with carboplatin to three children with heavily pre-treated advanced neuroblastoma.
(§4) Cycles were repeated every 21 days and a total of 4 cycles were administered in each patient. Toxicity was mainly haematological, grade 1-2 at 200 mg/m^2 and increased to grade 3-4 in the rest of the cycles, but cycle delay due to toxicity was not necessary.

A further data set concerns advanced neuroblastoma. Described as above. The class given is in vivo, human. As to the method: as §3, §4
Another data set can be described thus: Half life in mice. The following applies: mouse, in vivo; mice with high levels of carboxylesterases.
A short description of the next data set: Half life in humans. Conditions: human, in vivo.
Data set [4] in a line: Time course of apoptosis induction. The class given is cell-based.
A further data set concerns the target P-glycoprotein (Homo sapiens, UniProt P08183). Put plainly: P-glycoprotein substrate behaviour. The class given is cell-based.
Data set [5] can be described thus: Side effects in preclinical and clinical studies. Type of data set: in vivo.
For data set [6] the following is noted: mouse, in vivo.
The next data set can be described thus: Animal toxicity profile. The following applies: animals.
Data set [7] has as its system tumours that were metastatic and/or that reduced the function of at least one organ. Put plainly: Phase I/IIa safety/efficacy study in patients with metastatic and/or organ-function-reducing tumours.
Description: Nine heavily pre-treated patients were recruited to a combined Phase I/IIa safety/efficacy study. The patients had tumours that were metastatic and/or that reduced the function of at least one organ.
In all patients, the tumours were clinically assessed and the history of their disease was recorded. Tumour markers were determined.
A cycle of treatment consisted of CAP7.1 administration by infusion on 5 consecutive days, followed by an intermittent period of 16 days in which no CAP7.1 was administered. […] The first cohort (patients 1-3, 8 cycles in total) received CAP7.1 at a daily dose of 45 mg/m^2, the second cohort (patients 4-6, 9 cycles in total) at a daily dose of 90 mg/m^2 and the third cohort (patients 7-9) at a daily dose of 150 mg/m^2.

Chain of P-glycoprotein (P08183 whole entry): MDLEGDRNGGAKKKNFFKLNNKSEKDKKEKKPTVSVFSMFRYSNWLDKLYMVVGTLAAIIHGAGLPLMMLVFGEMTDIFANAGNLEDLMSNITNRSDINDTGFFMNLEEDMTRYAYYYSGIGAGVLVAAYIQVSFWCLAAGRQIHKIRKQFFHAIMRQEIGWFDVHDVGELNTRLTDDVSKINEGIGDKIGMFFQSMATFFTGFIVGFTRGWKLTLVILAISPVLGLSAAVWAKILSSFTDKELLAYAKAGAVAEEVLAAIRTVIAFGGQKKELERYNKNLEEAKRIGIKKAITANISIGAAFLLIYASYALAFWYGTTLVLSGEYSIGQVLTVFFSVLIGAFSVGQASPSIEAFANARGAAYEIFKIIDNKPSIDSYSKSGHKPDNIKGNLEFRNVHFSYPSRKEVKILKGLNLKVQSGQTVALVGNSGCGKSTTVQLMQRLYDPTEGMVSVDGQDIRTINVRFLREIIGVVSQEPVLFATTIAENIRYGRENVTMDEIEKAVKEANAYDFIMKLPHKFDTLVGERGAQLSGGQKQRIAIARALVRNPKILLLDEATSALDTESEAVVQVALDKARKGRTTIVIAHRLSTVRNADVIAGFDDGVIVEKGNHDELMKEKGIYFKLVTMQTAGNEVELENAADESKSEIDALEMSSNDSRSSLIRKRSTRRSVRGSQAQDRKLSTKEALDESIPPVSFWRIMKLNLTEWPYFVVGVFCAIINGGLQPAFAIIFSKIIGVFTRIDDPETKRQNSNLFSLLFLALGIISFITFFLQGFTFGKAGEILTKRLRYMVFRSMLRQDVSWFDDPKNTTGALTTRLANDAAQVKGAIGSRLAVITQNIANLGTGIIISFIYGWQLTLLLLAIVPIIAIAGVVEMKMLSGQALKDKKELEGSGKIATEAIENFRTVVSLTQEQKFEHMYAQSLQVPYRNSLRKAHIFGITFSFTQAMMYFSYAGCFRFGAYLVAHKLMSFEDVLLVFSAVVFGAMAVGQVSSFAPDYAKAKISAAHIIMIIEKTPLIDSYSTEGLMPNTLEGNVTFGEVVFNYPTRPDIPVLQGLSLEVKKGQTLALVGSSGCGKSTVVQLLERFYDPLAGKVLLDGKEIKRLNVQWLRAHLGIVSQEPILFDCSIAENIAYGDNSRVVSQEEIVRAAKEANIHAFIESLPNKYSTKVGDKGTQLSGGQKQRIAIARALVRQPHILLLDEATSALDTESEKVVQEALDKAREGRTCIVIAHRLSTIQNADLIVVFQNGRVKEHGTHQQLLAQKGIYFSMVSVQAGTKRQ
T2 sequence (P08183 whole entry): as above

As to `COc1cc([C@@H]2c3cc4c(cc3C(OC3OC5COC(C)OC5C(O)C3O)C3COC(=O)[C@@H]32)OCO4)cc(OC)c1OC(=O)OCC(O)CO` (stereo partly drawn) [CAP7.1], at CES3, the “cleavage of CAP7.1 to etoposide by CES3” value is given as “substantially no cleavage”. Besides, the “expression of topoisomerase II α (mRNA)” value in the data set with topoisomerase II α is “significant decrease”. Also, the “expression of topoisomerase II β (mRNA)” value in the data set on topoisomerase II β is given as “significant decrease”. Besides, the “intracellular JC-1 signal versus DMSO control (MDR-1-mediated substrate efflux)” value in [1] was “increased”. Moreover, the arrhythmias entry in data set [2] was “No arrhythmias”. In data set [2] (up to 24 hours), the “modifications in the cardiac electrophysiological parameters” value is given as “no relevant modifications”. Besides, in the data set with NSX2 tumour xenografts, the “tumour growth compared to control” value is listed as “clear inhibition of tumour growth”. In addition, the Cmax in data set [3] was found to be 3700 ng/mL. In addition, the results for the half-life (in data set [3]; in the data set “Half life in mice”; in “Half life in humans”) were 12 to 30 min, less than 5 min and 15 to 30 min, respectively. Besides, the haematological toxicity grade in the data set with advanced neuroblastoma (CAP7.1 200 mg/m^2 day 1 with carboplatin 150 mg/m^2 days 2-5) is reported as 1-2 grade; with advanced neuroblastoma (rest of the cycles (CAP7.1 400, 600 and 800 mg/m^2) with carboplatin) it was 3-4 grade. Moreover, the tumour response result in the data set with advanced neuroblastoma (two of the three patients, with carboplatin) is recorded as “evidences of tumour shrinkage”. Further, the “time after which apoptosis is complete” value in [4] was 120 h. The “substrate for P-glycoprotein / efflux from cells” value on P-glycoprotein is recorded as “not a substrate for P-glycoprotein”. Besides, the “side effects compared with etoposide” value in data set [5] was “fewer side effects than etoposide”. In addition, the LD10 in data set [6] is reported as 360 mg/m^2. In addition, the “main toxicity at sublethal dose” value in the data set “Animal toxicity profile” was “bone marrow suppression affecting predominantly neutrophils and red cells”. In addition, the weight loss entry in “Animal toxicity profile” is on record as “do not”. Also, in the data set “Animal toxicity profile” (high dose group), the tooth damage entry is “reversible tooth damage”. Also, in data set [7] (all nine patients, 45, 90 or 150 mg/m^2 daily on 5 consecutive days per cycle), the “tolerability of the therapy” value is “tolerated the therapy well without major adverse reactions”. Further, the “clinical response after the second cycle of treatment” value in [7] (patients 1, 3, 4, 6, 8 and 9 of nine) is recorded as “stagnation of the disease”. Besides, the “total dose per cycle tolerated without toxicity” value in [7] (patients 1 to 6) amounted to 450 mg/m^2.

Values taken from patent US9889147B2 (CELLACT PHARMA GMBH, priority 2010, dated 2018).
